Experimental data taken from patent publication US11965039B2, “Compstatin analogues and their medical uses” (priority 2018, dated 2024).
Read-outs that look alike come from different tables or passages of the source. Starred links: 1 amine or outer side, 2 acyl side, 3 side chain; linkers in the order of their positions; H or OH if unused. Positions of bridges follow the written chain, without caps; N, C: chain ends. Non-standard residues stand in square brackets, D forms with d. Residues, ends and D or L forms follow the SMILES beside them. Groups on a side chain read outwards from the residue. *: point of attachment. Trp(1-Me) = Cn1cc(C[C@H](N)C(=O)O)c2ccccc21; C16 diacid = O=C(O)CCCCCCCCCCCCCCC(=O)*; γGlu = O=C(O)[C@H](CCC(=O)[*:2])N[*:1]; AEEA = NCCOCCOCC(=O)O; Sar = CNCC(=O)O

Columns and labels:
[1] = system: classical complement pathway; assay: In vitro haemolysis assay (inhibition of classical complement pathway); assay type: cell-based, human; conditions: human serum, sensitized sheep red blood cells
In short: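 Compound dilutions preincubated 15 min at room temperature with diluted human serum (titrated per batch for 70-90% maximal haemolysis), then antibody-sensitized sheep RBC (10^7/well) added for 30 min at 37 °C in Tris/casein buffer, pH 7.4. Stopped with EDTA; haemolysis read at 405 nm; IC50 by 4PL fit.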

[2] = Solubility test at 10 mg/mL (visual inspection and light scattering); assay type: physicochemical; conditions: for Solubility, Condition 1: Acetate pH 4; for Solubility, Condition 2: Acetate pH 5; for Solubility, Condition 3: Phosphate pH 6; for Solubility, Condition 4: Phosphate pH 7; for Solubility, Condition 5: Phosphate pH 7.5
Experimental: The solubility of compounds was assessed by measuring light scattering over a pH interval from pH 4 to pH 7.5.
Compounds were dissolved in a stock solution of 20 mg/mL in H2O at pH 2.5 or pH 10. These stock solutions were diluted 1:1 with 200 mM buffered solution to reach a final solution of 10 mg/mL compound in 100 mM buffer. The 5 investigated conditions were (1) acetate pH 4.0, (2) acetate pH 5.0, (3) phosphate pH 6.0, (4) phosphate pH 7 and (5) phosphate pH 7.5.
Visual inspection included manually checking the 96 well plate for wells that are clear or non-clear. In addition to this a picture of the 96 well plate is taken.
Absorbance was measured at four wavelengths: 280 nm, 325 nm, 340 nm and 360 nm in an UV transparent 96 well microplate in a SpectraMax 190 microplate reader (Molecular Devices).
The criteria for this was a combination of visual inspection and light scattering not exceeding 0.1 AU, where values below 0.1 AU are good in visually clear samples.

[3] = Table 3, given as upper bounds, read-out: IC50, inhibition of hemolysis

Compound | IC50 [1, 3] [nM] | Solubility, Condition 1 [2] | Solubility, Condition 2 [2] | Solubility, Condition 3 [2] | Solubility, Condition 4 [2] | Solubility, Condition 5 [2] | IC50 ([1]; Table 4, valine 3 vs isoleucine 3 pairs, read-out: CP hemolysis IC50) [nM]
CC[C@H](C)[C@@H]1NC(=O)[C@@H](NC(=O)[C@H](Cc2ccccc2)NC(C)=O)CSSC[C@@H](C(=O)N[C@H](C(=O)NCC(=O)N[C@@H](C)C(=O)N[C@@H](CCC(=O)O)C(=O)N[C@@H](CO)C(=O)N[C@@H](CCCCNC(=O)COCCOCCNC(=O)COCCOCCNC(=O)CC[C@H](NC(=O)CCCCCCCCCCCCCCC(=O)O)C(=O)O)C(N)=O)[C@@H](C)O)NC(=O)[C@H](CCCNC(=N)N)NC(=O)[C@H](Cc2c[nH]cn2)NC(=O)[C@H](CCC(=O)O)NC(=O)CNC(=O)[C@H](Cc2c[nH]c3ccccc23)NC(=O)[C@H](CC(=O)O)NC(=O)[C@H](CCC(N)=O)NC(=O)[C@H](Cc2cn(C)c3ccccc23)NC1=O [Compound 102] (Ac-FCI[Trp(1-Me)]QDWGEHRCTGAESK([AEEA-AEEA-γGlu-C16 diacid])-NH2; disulfide 2-12) | < 100 | − (“−” denotes lack of solubility at the given condition, as UV absorbance at 340 nm exceeds 0.1 AU and/or it is visibly turbid or contains particles) | + (“+” denotes solubility at the given condition, as determined by UV absorbance being less than 0.1 AU at 340 nm and the sample being clear when manually inspected) | + (“+” denotes solubility at the given condition, as determined by UV absorbance being less than 0.1 AU at 340 nm and the sample being clear when manually inspected) | + (“+” denotes solubility at the given condition, as determined by UV absorbance being less than 0.1 AU at 340 nm and the sample being clear when manually inspected) | + (“+” denotes solubility at the given condition, as determined by UV absorbance being less than 0.1 AU at 340 nm and the sample being clear when manually inspected) | 
CC[C@H](C)[C@H](NC(=O)[C@H](C)NC(=O)[C@H](CO)NC(=O)CNC(C)=O)C(=O)N[C@H]1CSSC[C@@H](C(=O)N(C)CC(=O)N[C@@H](CCC(=O)O)C(N)=O)NC(=O)[C@H](CCCNC(=N)N)NC(=O)[C@H](Cc2c[nH]cn2)NC(=O)[C@H](CCC(=O)O)NC(=O)CNC(=O)[C@H](Cc2c[nH]c3ccccc23)NC(=O)[C@H](CC(=O)O)NC(=O)[C@H](CCC(N)=O)NC(=O)[C@H](Cc2c[nH]c3ccccc23)NC(=O)[C@H]([C@@H](C)CC)NC1=O [Compound 40] (Ac-GSAICIWQDWGEHRC[Sar]E-NH2; disulfide 5-15) | < 250 | − (“−” denotes lack of solubility at the given condition, as UV absorbance at 340 nm exceeds 0.1 AU and/or it is visibly turbid or contains particles) | − (“−” denotes lack of solubility at the given condition, as UV absorbance at 340 nm exceeds 0.1 AU and/or it is visibly turbid or contains particles) | + (“+” denotes solubility at the given condition, as determined by UV absorbance being less than 0.1 AU at 340 nm and the sample being clear when manually inspected) | + (“+” denotes solubility at the given condition, as determined by UV absorbance being less than 0.1 AU at 340 nm and the sample being clear when manually inspected) | + (“+” denotes solubility at the given condition, as determined by UV absorbance being less than 0.1 AU at 340 nm and the sample being clear when manually inspected) | 
CC[C@H](C)[C@H](NC(C)=O)C(=O)N[C@H]1CSSC[C@@H](C(=O)N[C@@H](CCC(=O)O)C(=O)NCC(=O)N[C@@H](CCC(=O)O)C(N)=O)NC(=O)[C@H](CCCNC(=N)N)NC(=O)[C@H](Cc2c[nH]cn2)NC(=O)[C@H](CCC(=O)O)NC(=O)CNC(=O)[C@H](Cc2c[nH]c3ccccc23)NC(=O)[C@H](CC(=O)O)NC(=O)[C@H](CCC(N)=O)NC(=O)[C@H](Cc2c[nH]c3ccccc23)NC(=O)[C@H]([C@@H](C)CC)NC1=O [Compound 27] (Ac-ICIWQDWGEHRCEGE-NH2; disulfide 2-12) | < 100 | − (“−” denotes lack of solubility at the given condition, as UV absorbance at 340 nm exceeds 0.1 AU and/or it is visibly turbid or contains particles) | − (“−” denotes lack of solubility at the given condition, as UV absorbance at 340 nm exceeds 0.1 AU and/or it is visibly turbid or contains particles) | − (“−” denotes lack of solubility at the given condition, as UV absorbance at 340 nm exceeds 0.1 AU and/or it is visibly turbid or contains particles) | + (“+” denotes solubility at the given condition, as determined by UV absorbance being less than 0.1 AU at 340 nm and the sample being clear when manually inspected) | + (“+” denotes solubility at the given condition, as determined by UV absorbance being less than 0.1 AU at 340 nm and the sample being clear when manually inspected) | 
CC[C@H](C)[C@@H]1NC(=O)[C@@H](NC(=O)[C@@H](NC(=O)[C@H](CCC(=O)O)NC(=O)[C@H](CO)NC(=O)[C@H](CCC(=O)O)NC(C)=O)[C@@H](C)CC)CSSC[C@@H](C(=O)N[C@@H](CCC(=O)O)C(=O)NCC(=O)N[C@@H](CCC(=O)O)C(N)=O)NC(=O)[C@H](CCCNC(=N)N)NC(=O)[C@H](Cc2c[nH]cn2)NC(=O)[C@H](CCC(=O)O)NC(=O)CNC(=O)[C@H](Cc2c[nH]c3ccccc23)NC(=O)[C@H](CC(=O)O)NC(=O)[C@H](CCC(N)=O)NC(=O)[C@H](Cc2c[nH]c3ccccc23)NC1=O [Compound 36] (Ac-ESEICIWQDWGEHRCEGE-NH2; disulfide 5-15) | < 250 | − (“−” denotes lack of solubility at the given condition, as UV absorbance at 340 nm exceeds 0.1 AU and/or it is visibly turbid or contains particles) | − (“−” denotes lack of solubility at the given condition, as UV absorbance at 340 nm exceeds 0.1 AU and/or it is visibly turbid or contains particles) | − (“−” denotes lack of solubility at the given condition, as UV absorbance at 340 nm exceeds 0.1 AU and/or it is visibly turbid or contains particles) | + (“+” denotes solubility at the given condition, as determined by UV absorbance being less than 0.1 AU at 340 nm and the sample being clear when manually inspected) | + (“+” denotes solubility at the given condition, as determined by UV absorbance being less than 0.1 AU at 340 nm and the sample being clear when manually inspected) | 
CC[C@H](C)[C@@H]1NC(=O)[C@@H](NC(=O)[C@H](Cc2ccccc2)NC(=O)[C@H](CCC(=O)O)NC(C)=O)CSSC[C@@H](C(=O)N(C)CC(=O)N[C@@H](CCC(=O)O)C(=O)N[C@@H](C)C(N)=O)NC(=O)[C@H](CCCNC(=N)N)NC(=O)[C@H](Cc2c[nH]cn2)NC(=O)[C@H](CCC(=O)O)NC(=O)CNC(=O)[C@H](Cc2c[nH]c3ccccc23)NC(=O)[C@H](CC(=O)O)NC(=O)[C@H](CCC(N)=O)NC(=O)[C@H](Cc2cn(C)c3ccccc23)NC1=O [Compound 80] (Ac-EFCI[Trp(1-Me)]QDWGEHRC[Sar]EA-NH2; disulfide 3-13) | < 100 | − (“−” denotes lack of solubility at the given condition, as UV absorbance at 340 nm exceeds 0.1 AU and/or it is visibly turbid or contains particles) | − (“−” denotes lack of solubility at the given condition, as UV absorbance at 340 nm exceeds 0.1 AU and/or it is visibly turbid or contains particles) | + (“+” denotes solubility at the given condition, as determined by UV absorbance being less than 0.1 AU at 340 nm and the sample being clear when manually inspected) | + (“+” denotes solubility at the given condition, as determined by UV absorbance being less than 0.1 AU at 340 nm and the sample being clear when manually inspected) | + (“+” denotes solubility at the given condition, as determined by UV absorbance being less than 0.1 AU at 340 nm and the sample being clear when manually inspected) | 
CC[C@H](C)[C@H](NC(=O)[C@H](C)NC(=O)[C@H](CO)NC(=O)CNC(=O)[C@H](CCC(=O)O)NC(C)=O)C(=O)N[C@H]1CSSC[C@@H](C(=O)N(C)CC(=O)N[C@@H](CCC(=O)O)C(N)=O)NC(=O)[C@H](CCCNC(=N)N)NC(=O)[C@H](Cc2c[nH]cn2)NC(=O)[C@H](CCC(=O)O)NC(=O)CNC(=O)[C@H](Cc2c[nH]c3ccccc23)NC(=O)[C@H](CC(=O)O)NC(=O)[C@H](CCC(N)=O)NC(=O)[C@H](Cc2c[nH]c3ccccc23)NC(=O)[C@H]([C@@H](C)CC)NC1=O [Compound 28] (Ac-EGSAICIWQDWGEHRC[Sar]E-NH2; disulfide 6-16) | < 100 | + (“+” denotes solubility at the given condition, as determined by UV absorbance being less than 0.1 AU at 340 nm and the sample being clear when manually inspected) | + (“+” denotes solubility at the given condition, as determined by UV absorbance being less than 0.1 AU at 340 nm and the sample being clear when manually inspected) | + (“+” denotes solubility at the given condition, as determined by UV absorbance being less than 0.1 AU at 340 nm and the sample being clear when manually inspected) | + (“+” denotes solubility at the given condition, as determined by UV absorbance being less than 0.1 AU at 340 nm and the sample being clear when manually inspected) | + (“+” denotes solubility at the given condition, as determined by UV absorbance being less than 0.1 AU at 340 nm and the sample being clear when manually inspected) | 88
